Data: PubChem BioAssay (NCI)
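The compound was tested at five concentrations on cells cultured in 96-well plates, with a 48-hour exposure period. The concentration for full growth arrest is given as TGI.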

Legend:
Assay in all cases: DTP human tumour cell line panel, 48 h
786-0 renal = system: 786-0 renal
A549 NSCLC = system: A549 NSCLC
ACHN renal = system: ACHN renal
BT-549 breast = system: BT-549 breast
CAKI-1 renal = system: CAKI-1 renal
CCRF-CEM leukemia = system: CCRF-CEM leukemia
COLO 205 colon = system: COLO 205 colon
DU-145 prostate = system: DU-145 prostate
EKVX NSCLC = system: EKVX NSCLC
HCC-2998 colon = system: HCC-2998 colon
HCT-116 colon = system: HCT-116 colon
HCT-15 colon = system: HCT-15 colon
HL-60(TB) leukemia = system: HL-60(TB) leukemia
HOP-62 NSCLC = system: HOP-62 NSCLC
HOP-92 NSCLC = system: HOP-92 NSCLC
HS 578T breast = system: HS 578T breast
HT29 colon = system: HT29 colon
IGROV1 ovarian = system: IGROV1 ovarian
K-562 leukemia = system: K-562 leukemia
KM12 colon = system: KM12 colon
LOX IMVI melanoma = system: LOX IMVI melanoma
M14 melanoma = system: M14 melanoma
MALME-3M melanoma = system: MALME-3M melanoma
MCF7 breast = system: MCF7 breast
MDA-MB-231 breast = system: MDA-MB-231 breast
MDA-MB-435 = system: MDA-MB-435
MDA-N = system: MDA-N
MOLT-4 leukemia = system: MOLT-4 leukemia
NCI-H226 lung = system: NCI-H226 lung
NCI-H23 lung = system: NCI-H23 lung
NCI-H460 lung = system: NCI-H460 lung
NCI-H522 lung = system: NCI-H522 lung
NCI/ADR-RES ovarian = system: NCI/ADR-RES ovarian
OVCAR-4 ovarian = system: OVCAR-4 ovarian
OVCAR-5 ovarian = system: OVCAR-5 ovarian
OVCAR-8 ovarian = system: OVCAR-8 ovarian
PC-3 prostate = system: PC-3 prostate
RPMI-8226 leukemia = system: RPMI-8226 leukemia
RXF 393 renal = system: RXF 393 renal
SF-268 CNS = system: SF-268 CNS
SF-295 CNS = system: SF-295 CNS
SF-539 CNS = system: SF-539 CNS
SK-MEL-28 melanoma = system: SK-MEL-28 melanoma
SK-MEL-5 melanoma = system: SK-MEL-5 melanoma
SK-OV-3 ovarian = system: SK-OV-3 ovarian
SN12C renal = system: SN12C renal
SNB-19 CNS = system: SNB-19 CNS
SNB-75 CNS = system: SNB-75 CNS
SR leukemia = system: SR leukemia
SW-620 colon = system: SW-620 colon
T-47D breast = system: T-47D breast
TK-10 renal = system: TK-10 renal
UACC-257 melanoma = system: UACC-257 melanoma
UACC-62 melanoma = system: UACC-62 melanoma
UO-31 renal = system: UO-31 renal

Measured: TGI

C=CCNC(=O)NC(=O)CSC1=NNC2(C(=O)N1)c1ccccc1-c1ccccc12
> 10 µM: all assays above
